Assay in all cases: biochemical
Parameters in all cases: Thermal shift (DSF, SYPRO Orange) Tm shift of recombinant kinase domains at 10 uM compound

In experiment [1] the target is ABL1 (Homo sapiens, UniProt P00519).
Experiment [2] concerns the target EPHA5 (Homo sapiens, UniProt P54756).
For experiment [3], the target named is T1, EPHB3 (Homo sapiens, UniProt P54753).
T1 sequence (P54753 1-998): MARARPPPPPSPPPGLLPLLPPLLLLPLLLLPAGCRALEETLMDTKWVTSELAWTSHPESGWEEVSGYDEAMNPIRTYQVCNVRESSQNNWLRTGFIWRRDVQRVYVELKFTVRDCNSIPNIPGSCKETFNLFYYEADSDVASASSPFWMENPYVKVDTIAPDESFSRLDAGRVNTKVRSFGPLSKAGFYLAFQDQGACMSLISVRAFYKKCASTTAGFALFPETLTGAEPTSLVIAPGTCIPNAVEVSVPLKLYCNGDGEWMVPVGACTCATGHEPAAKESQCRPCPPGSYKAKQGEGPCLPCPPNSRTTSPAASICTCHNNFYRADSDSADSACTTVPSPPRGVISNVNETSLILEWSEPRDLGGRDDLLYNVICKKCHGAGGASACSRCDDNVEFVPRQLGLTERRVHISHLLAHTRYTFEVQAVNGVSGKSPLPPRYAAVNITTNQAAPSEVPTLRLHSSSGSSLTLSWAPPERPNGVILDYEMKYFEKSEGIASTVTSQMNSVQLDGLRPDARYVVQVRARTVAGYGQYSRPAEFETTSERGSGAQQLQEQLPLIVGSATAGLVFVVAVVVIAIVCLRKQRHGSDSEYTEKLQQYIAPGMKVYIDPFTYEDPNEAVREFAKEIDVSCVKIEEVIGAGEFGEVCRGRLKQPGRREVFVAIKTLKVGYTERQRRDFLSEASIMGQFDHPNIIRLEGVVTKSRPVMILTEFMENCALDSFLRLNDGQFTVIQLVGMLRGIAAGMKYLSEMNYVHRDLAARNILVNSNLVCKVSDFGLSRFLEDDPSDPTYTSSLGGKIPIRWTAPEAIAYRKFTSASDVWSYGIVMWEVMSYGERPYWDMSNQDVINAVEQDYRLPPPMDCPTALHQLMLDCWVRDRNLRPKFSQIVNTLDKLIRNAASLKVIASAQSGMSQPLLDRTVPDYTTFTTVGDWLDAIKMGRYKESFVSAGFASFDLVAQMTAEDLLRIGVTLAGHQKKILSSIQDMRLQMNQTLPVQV

For experiment [4], the target named is FGFR2 (Homo sapiens, UniProt P21802).
Sequence of FGFR2 (P21802 whole entry): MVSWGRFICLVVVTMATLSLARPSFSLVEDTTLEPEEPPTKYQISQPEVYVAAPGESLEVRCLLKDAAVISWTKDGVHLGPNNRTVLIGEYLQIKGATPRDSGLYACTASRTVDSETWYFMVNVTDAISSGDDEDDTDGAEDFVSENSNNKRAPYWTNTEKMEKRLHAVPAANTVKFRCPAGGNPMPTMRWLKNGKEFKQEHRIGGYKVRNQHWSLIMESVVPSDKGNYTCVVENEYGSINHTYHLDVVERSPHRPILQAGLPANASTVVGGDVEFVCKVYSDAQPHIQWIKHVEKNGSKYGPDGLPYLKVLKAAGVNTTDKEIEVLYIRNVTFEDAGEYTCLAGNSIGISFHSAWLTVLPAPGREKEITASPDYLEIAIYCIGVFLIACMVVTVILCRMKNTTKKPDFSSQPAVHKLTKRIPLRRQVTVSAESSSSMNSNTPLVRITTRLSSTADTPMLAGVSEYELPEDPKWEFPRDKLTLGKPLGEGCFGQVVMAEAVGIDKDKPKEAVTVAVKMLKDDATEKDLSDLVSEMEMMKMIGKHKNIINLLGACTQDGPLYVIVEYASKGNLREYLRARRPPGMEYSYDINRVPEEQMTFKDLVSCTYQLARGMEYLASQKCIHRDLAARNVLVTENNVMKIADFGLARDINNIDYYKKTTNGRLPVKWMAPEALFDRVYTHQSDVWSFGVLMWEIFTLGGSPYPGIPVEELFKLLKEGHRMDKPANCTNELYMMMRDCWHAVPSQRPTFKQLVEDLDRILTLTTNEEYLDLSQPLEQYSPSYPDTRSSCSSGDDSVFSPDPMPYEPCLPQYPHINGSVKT
Experiment [5] deals with T2, MST4 (Homo sapiens, UniProt Q9P289).
T2 construct: gene STK26
T2 sequence (Q9P289 whole entry): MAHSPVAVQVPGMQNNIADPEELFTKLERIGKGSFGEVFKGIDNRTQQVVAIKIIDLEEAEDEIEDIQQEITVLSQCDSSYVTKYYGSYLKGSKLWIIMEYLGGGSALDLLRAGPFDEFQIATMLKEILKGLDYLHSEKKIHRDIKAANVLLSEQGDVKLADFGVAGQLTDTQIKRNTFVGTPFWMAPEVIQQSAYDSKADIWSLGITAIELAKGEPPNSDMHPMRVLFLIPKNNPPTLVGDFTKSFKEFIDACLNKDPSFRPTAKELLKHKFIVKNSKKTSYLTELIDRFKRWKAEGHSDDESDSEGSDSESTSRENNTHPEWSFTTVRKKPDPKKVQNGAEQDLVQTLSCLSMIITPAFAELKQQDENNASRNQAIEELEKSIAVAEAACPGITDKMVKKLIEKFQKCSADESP

The target in experiment [6] is T3, MYT1 (Homo sapiens, UniProt Q99640).
T3 construct: gene PKMYT1
T3 sequence (Q99640 1-499): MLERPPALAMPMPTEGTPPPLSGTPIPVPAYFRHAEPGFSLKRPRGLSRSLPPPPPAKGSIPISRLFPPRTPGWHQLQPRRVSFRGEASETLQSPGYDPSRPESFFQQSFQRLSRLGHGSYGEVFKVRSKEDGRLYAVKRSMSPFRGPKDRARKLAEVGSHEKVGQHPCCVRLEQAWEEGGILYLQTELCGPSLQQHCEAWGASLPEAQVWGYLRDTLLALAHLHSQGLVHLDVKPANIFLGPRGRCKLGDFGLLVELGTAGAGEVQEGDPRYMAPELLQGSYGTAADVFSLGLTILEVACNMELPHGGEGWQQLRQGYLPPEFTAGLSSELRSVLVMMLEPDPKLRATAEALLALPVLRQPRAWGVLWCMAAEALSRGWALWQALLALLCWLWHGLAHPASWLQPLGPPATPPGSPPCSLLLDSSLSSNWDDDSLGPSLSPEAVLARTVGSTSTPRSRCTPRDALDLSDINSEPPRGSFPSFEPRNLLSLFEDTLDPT

For experiment [7], the target named is T4, p38d (Homo sapiens, UniProt O15264).
T4 construct: gene MAPK13
T4 sequence (O15264 1-365): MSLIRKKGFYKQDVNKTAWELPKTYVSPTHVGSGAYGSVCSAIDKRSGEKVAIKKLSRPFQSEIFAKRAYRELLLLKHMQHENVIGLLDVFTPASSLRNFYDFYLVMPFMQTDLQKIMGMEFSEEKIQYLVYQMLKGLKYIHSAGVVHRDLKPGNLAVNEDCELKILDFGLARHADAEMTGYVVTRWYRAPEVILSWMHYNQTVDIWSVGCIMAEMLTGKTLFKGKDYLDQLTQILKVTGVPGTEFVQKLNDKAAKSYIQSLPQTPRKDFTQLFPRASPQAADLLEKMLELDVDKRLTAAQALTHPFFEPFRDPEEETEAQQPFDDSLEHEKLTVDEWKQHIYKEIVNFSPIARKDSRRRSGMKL

Data on three molecules can be found in article doi:10.1101/2023.12.04.569845, “Identification of 4-(6-((2-methoxyphenyl)amino)pyrazin-2-yl)benzoic acids as CSNK2A inhibitors with antiviral activity and improved selectivity over PIM3” (bioRxiv, 2023).

The structures appear in SMILES notation. Where two headings read alike, the source gives them in different places.

Sequence of ABL1 (P00519 whole entry): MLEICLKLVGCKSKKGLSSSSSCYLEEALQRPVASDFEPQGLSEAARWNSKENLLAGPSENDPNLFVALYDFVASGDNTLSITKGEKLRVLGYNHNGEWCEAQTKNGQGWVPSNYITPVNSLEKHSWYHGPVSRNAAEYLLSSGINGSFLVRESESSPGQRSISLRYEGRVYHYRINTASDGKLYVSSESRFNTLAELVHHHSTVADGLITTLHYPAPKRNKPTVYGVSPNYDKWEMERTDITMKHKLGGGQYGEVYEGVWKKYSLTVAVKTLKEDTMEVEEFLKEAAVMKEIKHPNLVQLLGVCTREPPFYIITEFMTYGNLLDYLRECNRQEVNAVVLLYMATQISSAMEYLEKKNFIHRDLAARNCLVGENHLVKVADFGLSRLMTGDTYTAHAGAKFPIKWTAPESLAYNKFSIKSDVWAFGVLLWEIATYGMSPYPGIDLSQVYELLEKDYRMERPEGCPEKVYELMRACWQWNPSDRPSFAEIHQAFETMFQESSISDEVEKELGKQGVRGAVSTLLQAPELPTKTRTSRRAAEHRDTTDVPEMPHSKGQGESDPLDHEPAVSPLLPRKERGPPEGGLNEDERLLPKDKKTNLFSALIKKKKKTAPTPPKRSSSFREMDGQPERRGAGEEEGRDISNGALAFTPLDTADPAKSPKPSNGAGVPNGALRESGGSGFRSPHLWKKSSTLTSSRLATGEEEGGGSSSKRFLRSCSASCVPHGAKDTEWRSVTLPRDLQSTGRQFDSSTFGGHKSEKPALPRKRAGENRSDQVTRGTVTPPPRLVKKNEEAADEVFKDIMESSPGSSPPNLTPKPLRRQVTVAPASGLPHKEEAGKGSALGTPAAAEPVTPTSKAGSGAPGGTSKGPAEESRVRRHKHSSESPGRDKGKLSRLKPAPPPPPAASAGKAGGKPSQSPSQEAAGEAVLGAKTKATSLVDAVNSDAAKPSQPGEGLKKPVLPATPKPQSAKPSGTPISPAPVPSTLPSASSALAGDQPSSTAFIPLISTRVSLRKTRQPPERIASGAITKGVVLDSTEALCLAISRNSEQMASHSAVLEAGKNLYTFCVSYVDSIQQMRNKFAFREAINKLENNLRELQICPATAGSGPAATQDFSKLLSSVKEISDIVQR
Sequence of EPHA5 (P54756 whole entry): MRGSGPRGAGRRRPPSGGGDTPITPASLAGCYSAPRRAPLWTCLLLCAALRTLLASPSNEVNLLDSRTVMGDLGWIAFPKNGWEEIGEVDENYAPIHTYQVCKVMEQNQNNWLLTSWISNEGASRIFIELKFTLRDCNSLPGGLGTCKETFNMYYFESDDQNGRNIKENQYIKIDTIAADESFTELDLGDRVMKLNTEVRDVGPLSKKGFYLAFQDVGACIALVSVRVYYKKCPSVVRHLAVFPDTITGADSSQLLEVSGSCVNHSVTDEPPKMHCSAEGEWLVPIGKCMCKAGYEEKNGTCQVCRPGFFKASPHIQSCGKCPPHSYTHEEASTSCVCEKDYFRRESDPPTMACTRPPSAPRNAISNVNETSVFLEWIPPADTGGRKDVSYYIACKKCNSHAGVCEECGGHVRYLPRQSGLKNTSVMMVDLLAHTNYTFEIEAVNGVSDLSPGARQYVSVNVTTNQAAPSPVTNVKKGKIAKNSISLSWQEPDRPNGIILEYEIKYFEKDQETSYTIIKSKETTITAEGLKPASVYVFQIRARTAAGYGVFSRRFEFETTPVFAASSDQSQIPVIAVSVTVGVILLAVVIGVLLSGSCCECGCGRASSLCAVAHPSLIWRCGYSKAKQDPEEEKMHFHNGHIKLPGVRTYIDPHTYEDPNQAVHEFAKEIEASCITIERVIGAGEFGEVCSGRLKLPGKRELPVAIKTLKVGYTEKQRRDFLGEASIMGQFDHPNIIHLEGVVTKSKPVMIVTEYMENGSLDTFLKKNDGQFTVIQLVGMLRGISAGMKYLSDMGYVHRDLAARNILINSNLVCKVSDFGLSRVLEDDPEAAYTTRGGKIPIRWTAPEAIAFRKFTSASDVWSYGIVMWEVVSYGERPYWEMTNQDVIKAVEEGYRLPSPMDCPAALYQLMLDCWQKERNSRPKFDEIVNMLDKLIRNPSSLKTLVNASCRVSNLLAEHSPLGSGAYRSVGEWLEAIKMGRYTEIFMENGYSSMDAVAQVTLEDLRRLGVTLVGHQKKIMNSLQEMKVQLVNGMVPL

Take `COc1ccc(OC(C)C)cc1Nc1cncc(-c2ccc(C(=O)O)cc2)n1` [7c]: the ΔTm at 10 µM in experiment [1] (read-out: 7c) is 7 °C; in experiment [2] (read-out: 7c) it was 1 °C; in experiment [3] (read-out: 7c), -1 °C; in experiment [4] (read-out: 7c) it was 0 °C; in experiment [5] (read-out: 7c) it was -1 °C; in experiment [6] (read-out: 7c), 0 °C. Besides, the ΔTm at 10 µM in experiment [7] (read-out: 7c) was 0 °C.
Consider `CC(C)Oc1ccc2ccn(-c3cncc(-c4ccc(C(=O)O)cc4)n3)c2c1` [6c], for which the ΔTm at 10 µM in experiment [1] (read-out: 6c) is 8 °C; in experiment [2] (read-out: 6c), 2 °C; in experiment [3] (read-out: 6c), 1 °C; in experiment [4] (read-out: 6c), 0 °C; in experiment [5] (read-out: 6c), -4 °C; in experiment [6] (read-out: 6c), 0 °C. Further, the ΔTm at 10 µM in experiment [7] (read-out: 6c) stood at 1 °C.
As for `CC(C)Nc1ccc2cnn(-c3cncc(-c4ccc(C(=O)O)cc4)n3)c2c1` [compound 2, 2], the ΔTm at 10 µM in experiment [1] (read-out: 2) came to 7 °C; in experiment [2] (read-out: 2) it was 2 °C; in experiment [3] (read-out: 2), 0 °C; in experiment [4] (read-out: 2) it was 0 °C; in experiment [5] (read-out: 2), 3 °C; in experiment [6] (read-out: 2), 0 °C. Further, in experiment [7] (read-out: 2), the ΔTm at 10 µM was 0 °C.
